Measured values as given in ChEMBL document CHEMBL6074663, “Design, synthesis and evaluation of 3-(2-(substituted benzyloxy)benzylidene) pyrrolidine-2,5-dione derivatives for novel ATX inhibitor” (Bioorg Med Chem Lett, 2024).

How the values were obtained:
Autotaxin [1] = target: T1, Autotaxin (Homo sapiens, UniProt Q13822); test: Inhibition of ATX (unknown origin) using FS-3 as substrate preincubated with compound for 10 mins followed by substrate addition measured for 30 mins by fluorometric kinetic assay
[2] = Inhibition of collagen formation in oleic and palmitic acid induced human Huh-7 cells cocultured with human LX2 cells at 1 to 10 uM incubated for […] by Sirius Red staining based analysis; type: functional; details: dose 1-10 µM
LX-2 = test: Inhibition of cell migration in TGF-beta induced human LX2 cells by measuring cell uncovered area at 0.3 to 3 uM incubated for 24 hrs by wound healing assay; type: functional; details: dose 0.3-3 µM
Huh-7 = test: Anti-steatosis activity against oleic acid induced human Huh-7 cells assessed as reduction of lipid accumulation at 1 to 10 uM incubated for 24 hrs by […] based fluorescence microscopic analysis; type: functional; parameters: scale not given: the % may be the effect or the level left; details: dose 1-10 µM
Autotaxin [3] = target: T1, Autotaxin; test: Inhibition of ATX (unknown origin) using FS-3 as substrate by measuring fold change preincubated with compound for 10 mins followed by substrate addition measured for 30 mins by fluorometric kinetic assay compared to 3-(2-(benzyloxy)benzylidene)-1-(3-chlorophenyl)pyrrolidine-2,5-dione; details: time 40.0 min

Row | Structure (SMILES) | IC50 (Autotaxin [1]) | further results
1 | O=C(O)c1ccc(COc2ccccc2/C=C2/CC(=O)N(c3cccc(Cl)c3)C2=O)cc1 | 9390 nM | 
2 | CN(C)C(=O)c1ccc(COc2ccccc2/C=C2/CC(=O)N(c3cccc(Cl)c3)C2=O)cc1 | > 10000 nM | 
3 | N#Cc1ccc(COc2ccccc2/C=C2/CC(=O)N(c3cccc(Cl)c3)C2=O)cc1 | 280 nM | fold change (FC) (Autotaxin [3]): 3.5
4 | O=C1C/C(=C/c2ccccc2OCc2ccccc2)C(=O)N1c1cccc(Cl)c1 | 980 nM | 
5 | O=C(Oc1ccccc1)c1ccc(COc2ccccc2/C=C2/CC(=O)N(c3cccc(Cl)c3)C2=O)cc1 | 2040 nM | 
6 | O=C(Oc1cccc2ccccc12)c1ccc(COc2ccccc2/C=C2/CC(=O)N(c3cccc(Cl)c3)C2=O)cc1 | > 10000 nM | 

More lines, main results first:

Row | IC50 (Autotaxin [1]) | Structure (SMILES) | further results
7 | 130 nM | COC(=O)c1ccc(COc2ccccc2/C=C2\CC(=O)N(c3cccc(Cl)c3)C2=O)cc1 | inhibition (INH) [2]: 35%; inhibition (INH) (LX-2): 23%; Activity (Huh-7): 42%
8 | 320 nM | CCCOC(=O)c1ccc(COc2ccccc2/C=C2/CC(=O)N(c3cccc(Cl)c3)C2=O)cc1 | 
9 | 270 nM | CC(C)OC(=O)c1ccc(COc2ccccc2/C=C2/CC(=O)N(c3cccc(Cl)c3)C2=O)cc1 | 
10 | 240 nM | NC(=O)c1ccc(COc2ccccc2/C=C2/CC(=O)N(c3cccc(Cl)c3)C2=O)cc1 | 
